Patent publication US10058525B2, “Application of chlorogenic acid in preparing medicines for treating lupus erythematosus” (SICHUAN JIUZHANG BIOLOGICAL SCIENCE AND TECHNOLOGY CO., LTD., priority 2015, dated 2018)
Entries after “also recorded” stand apart in the source; their conditions may differ.

Legend:
[1] = tested on: lupus erythematosus model mice (renal glomerular capsule wall epithelial cells); experiment: Electron microscope observation of kidney samples, lupus model mice; assay type: in vivo, BALB/c mice; details: 21 days
Procedure: The back of mice was shaved and acutely exposed to Ultraviolet of 2 h/d*3 d, with a distance of 30 cm. After exposure to UV, 2.5 mg/kg of LPS was administrated once by ip, and after 24 h, the model was successfully established; the mice in the normal control group received normal saline via ip. 24 h after injection of LPS (ip), medicines were given to the model mice by intragastric administration. Chlorogenic acid test groups received high, middle, and low doses of medicines, by intragastric administration at a respective dosage of 10 mg/kg*d, 20 mg/kg*d, and 40 mg/kg*d. The positive control group A received 2 mg/kg*d of artesunate by stomach perfusion, while the positive control group B received 1 mg/kg*d of prednisone by stomach perfusion. Mice in the model and normal control group all received 0.4 ml/mouse normal saline by gavage. After 15 days of administration, animals in each group were taken blood by separating eyeballs on days 14, 21, 28, and after cultured in water bath at 37° C. for 1 h, the blood sample was centrifugated at 2000 r/min for 5 min, to draw serum for use. On day 21, after blood collection, animals were sacrificed by dislocation, followed by collection of liver and kidney, and they were placed in fixative solutions of electron microscope and light microscrope, respectively. On day 21, the sample used for observation under electron microscope was fixed in mixed stationary solution of 2% paraformaldehyde+0.25% glutaral for 4 h, rinsed with TBS, treated with 1% osmic acid, followed by fixation for 1 h, rinsed with buffer solution, dehydrated with acetone, dyed with uranyl acetate for 2 h, macerated in Epon812 and embedded, and cut into slices with LEICA ultramicrotome. The slices were stained with lead solution, and the sample was observed under transmission electron microscope when it was dry.

ANA [2] = experiment: Serologic detection of ANA by immunofluorescence on HEp-2 cell sheets, serum of UV + LPS lupus model mice; assay type: in vivo, BALB/c mice; design: key: (+): positive; (−): negative; (++++): intense fluorescence; (+++): stronger fluorescence; (++): weeker fluorescence; details: intragastric
Procedure: (§1) The back of mice was shaved and acutely exposed to Ultraviolet of 2 h/d*3 d, with a distance of 30 cm. After exposure to UV, 2.5 mg/kg of LPS was administrated once by ip, and after 24 h, the model was successfully established; the mice in the normal control group received normal saline via ip. 24 h after injection of LPS (ip), medicines were given to the model mice by intragastric administration. Chlorogenic acid test groups received high, middle, and low doses of medicines, by intragastric administration at a respective dosage of 10 mg/kg*d, 20 mg/kg*d, and 40 mg/kg*d. The positive control group A received 2 mg/kg*d of artesunate by stomach perfusion, while the positive control group B received 1 mg/kg*d of prednisone by stomach perfusion. Mice in the model and normal control group all received 0.4 ml/mouse normal saline by gavage. After 15 days of administration, animals in each group were taken blood by separating eyeballs on days 14, 21, 28, and after cultured in water bath at 37° C. for 1 h, the blood sample was centrifugated at 2000 r/min for 5 min, to draw serum for use. On day 21, after blood collection, animals were sacrificed by dislocation, followed by collection of liver and kidney, and they were placed in fixative solutions of electron microscope and light microscrope, respectively. Serum of mice was diluted at 1:100 with special buffer solution of Shenzhen Hengjia, and then 200 μL of diluted serum was respectively added to the reactive tank with corresponding number, cultured in the incubator at 37° C. for 30 min, and washed with the buffer solution four times, 2 min for each time; 200 μL of diluted biotin goat anti-mouse IgG (1:100) was added, cultured in the incubator at 37° C. for 30 min, and then washed with the buffer solution four times, 2 min for each time; 100 μL of diluted HRP-avidin (1:100) was added, cultured in the incubator at 37° C. for 30 min, and then washed as mentioned-above; reactive solutions A and B were added till appearance of positive bands, then washed with the buffer solution. Compared with the standard bands of ENA polypeptide antibody spectrum in the same kit, if the positive bands appeared at 28/29,13.5 ku polypeptide; 15,16.5,38 kupolypeptide; 52 kupolypeptide and 47/48,45 kupolypeptide, that can be determined as anti-Sm, anti-Rib, anti-ssA, and anti-ssB positive antibody. Serum was diluted with PBS at 1:40, then 20-30 μL of diluted serum was dropped into the scrobiculus of HEp-2 cell sheets, each cell sheet for each group. In the process of dropping serum, it should be noted that the surface of cell sheet can not be touched. After addition of serum, cell sheet was placed in wet box and kept for 30 min at room temperature (25° C.). After 30 min, the cell sheet was taken out, and serum was carefully washed out with PBS, then carefully washed twice with PBS, 5 min for each time; after washing, the remained PBS was removed by special absorbent paper of […] company (In this process, it should be noted that becoming dry of cell substrates will affect the results). 20-30 μL of diluted (PBS, 1:100) FITC goat anti-mouse IgG was added by dropping, and then incubated in wet box at room temperature for 30 min. After washing with PBS, steps were same to above. The remained PBS was removed by absorbent paper, and 1-2 drops of fluorescent mounting media were added to the cell sheet. The cover glass was mounted, observed under Olympus BH-2 universal microscope, and then photographed.

ANA [3] = experiment: as above; assay type: in vivo, BALB/c mice; details: chlorogenic acid high dose, ×200
Procedure: The back of mice was shaved and acutely exposed to Ultraviolet of 2 h/d*3 d, with a distance of 30 cm. After exposure to UV, 2.5 mg/kg of LPS was administrated once by ip, and after 24 h, the model was successfully established; the mice in the normal control group received normal saline via ip. 24 h after injection of LPS (ip), medicines were given to the model mice by intragastric administration. Chlorogenic acid test groups received high, middle, and low doses of medicines, by intragastric administration at a respective dosage of 10 mg/kg*d, 20 mg/kg*d, and 40 mg/kg*d. The positive control group A received 2 mg/kg*d of artesunate by stomach perfusion, while the positive control group B received 1 mg/kg*d of prednisone by stomach perfusion. Mice in the model and normal control group all received 0.4 ml/mouse normal saline by gavage. After 15 days of administration, animals in each group were taken blood by separating eyeballs on days 14, 21, 28, and after cultured in water bath at 37° C. for 1 h, the blood sample was centrifugated at 2000 r/min for 5 min, to draw serum for use. On day 21, after blood collection, animals were sacrificed by dislocation, followed by collection of liver and kidney, and they were placed in fixative solutions of electron microscope and light microscrope, respectively. Serum of mice was diluted at 1:100 with special buffer solution of Shenzhen Hengjia, and then 200 μL of diluted serum was respectively added to the reactive tank with corresponding number, cultured in the incubator at 37° C. for 30 min, and washed with the buffer solution four times, 2 min for each time; 200 μL of diluted biotin goat anti-mouse IgG (1:100) was added, cultured in the incubator at 37° C. for 30 min, and then washed with the buffer solution four times, 2 min for each time; 100 μL of diluted HRP-avidin (1:100) was added, cultured in the incubator at 37° C. for 30 min, and then washed as mentioned-above; reactive solutions A and B were added till appearance of positive bands, then washed with the buffer solution. Compared with the standard bands of ENA polypeptide antibody spectrum in the same kit, if the positive bands appeared at 28/29,13.5 ku polypeptide; 15,16.5,38 kupolypeptide; 52 kupolypeptide and 47/48,45 kupolypeptide, that can be determined as anti-Sm, anti-Rib, anti-ssA, and anti-ssB positive antibody. Serum was diluted with PBS at 1:40, then 20-30 μL of diluted serum was dropped into the scrobiculus of HEp-2 cell sheets, each cell sheet for each group. In the process of dropping serum, it should be noted that the surface of cell sheet can not be touched. After addition of serum, cell sheet was placed in wet box and kept for 30 min at room temperature (25° C.). […]

lupus erythematosus = experiment: Screening medicines for treatment of lupus erythematosus; details: screening of extracts and potency constituents; no method given
ANA [4] = experiment: Serologic detection of ANA by immunofluorescence on HEp-2 cell sheets, serum of UV + LPS lupus model mice; assay type: in vivo, BALB/c mice; design: key: (+): positive; (−): negative; (++++): intenseintensity; (+++): stronger fluorescent intensity; details: day 14, intragastric
Procedure: as §1

O=C(/C=C/c1ccc(O)c(O)c1)O[C@@H]1C[C@](O)(C(=O)O)C[C@@H](O)[C@H]1O [Chlorogenic acid, 3-O-caffeoylquinic acid]
proliferative degree of renal glomerular capsule wall epithelial cells ([1]; chlorogenic acid (all dose groups)): somewhat relieved | proliferative degree of glomerular capsule wall epithelial cells ([1]; high-dose group of chlorogenic acid): somewhat relieves; also recorded: the release degree in high dose group was the most obvious | ANA (ANA [2]; day 21, chlorogenic acid high dose): (++) | ANA (ANA [2]; day 21, chlorogenic acid low dose): (+++) | ANA (ANA [2]; day 21, chlorogenic acid middle dose): (++) | ANA (ANA [2]; day 28, chlorogenic acid high dose): (++) | ANA (ANA [2]; day 28, chlorogenic acid low dose): (+++) | ANA (ANA [2]; day 28, chlorogenic acid middle dose): (++) | fluorescence intensity of ANA (FIG. 2) (ANA [3]; 14 days): decreases | fluorescence intensity of ANA (FIG. 3) (ANA [3]; 21 days): decreases | fluorescence intensity of ANA (FIG. 4) (ANA [3]; 28 days): decreases | inhibition on lupus erythematosus (lupus erythematosus): more obvious inhibition | ANA (ANA [4]; chlorogenic acid high dose): (+++) | ANA (ANA [4]; chlorogenic acid low dose): (++++) | ANA (ANA [4]; chlorogenic acid middle dose): (+++)
